In the kinase profiling compilation of Christmann-Franck et al. (2016):

Experiments:
Experiment in all cases: radiometric filter-binding kinase assay, Kinase HotSpot
Details in all cases: compound 0.5 µM; ATP 10 µM
[1] = target: TSSK1B (human) (UniProt Q9BXA7)
[2] = target: MAP3K10 (human) (UniProt Q02779)
[3] = target: PRKCZ (human) (UniProt Q05513)
[4] = target: HIPK4 (human) (UniProt Q8NE63)
[5] = target: LTK (human) (UniProt P29376)
[6] = target: MAP3K8 (human) (UniProt P41279)
[7] = target: MAPK10 (human) (UniProt P53779)
[8] = target: CLK1 (human) (UniProt P49759)
[9] = target: PRKCI (human) (UniProt P41743)
[10] = target: PKN2 (human) (UniProt Q16513)
[11] = target: TAOK2 (human) (UniProt Q9UL54)
[12] = target: MAPKAPK2 (human) (UniProt P49137)
[13] = target: ACVR1B (human) (UniProt P36896)
[14] = target: CSNK2A2 (human) (UniProt P19784)
[15] = target: CDK5 CDK5R1 p35 (human) (UniProt Q00535+Q15078)
[16] = target: TEC (human) (UniProt P42680)
[17] = target: RPS6KA4 KD2 (human) (UniProt O75676)
[18] = target: PASK (human) (UniProt Q96RG2)
[19] = target: EPHA5 (human) (UniProt P54756)
[20] = target: ITK (human) (UniProt Q08881)
[21] = target: MAP2K2 (human) (UniProt P36507)
[22] = target: ROS1 (human) (UniProt P08922)
[23] = target: EPHB2 (human) (UniProt P29323)
[24] = target: MAP3K2 (human) (UniProt Q9Y2U5)
[25] = target: PHKG2 (human) (UniProt P15735)
[26] = target: RPS6KB2 (human) (UniProt Q9UBS0)
[27] = target: STK3 (human) (UniProt Q13188)
[28] = target: ULK2 (human) (UniProt Q8IYT8)
[29] = target: CAMK1D (human) (UniProt Q8IU85)
[30] = target: EPHA7 (human) (UniProt Q15375)
[31] = target: GSK3B (human) (UniProt P49841)
[32] = target: PRKCG (human) (UniProt P05129)
[33] = target: CDK4 CCND3 (human) (UniProt P30281+P11802)
[34] = target: STK25 (human) (UniProt O00506)
[35] = target: MAP3K11 (human) (UniProt Q16584)
[36] = target: MAP4K4 (human) (UniProt O95819)
[37] = target: PNCK (human) (UniProt Q6P2M8)
[38] = target: MAP3K9 (human) (UniProt P80192)
[39] = target: MARK3 (human) (UniProt P27448)
[40] = target: ABL1 (human) (UniProt P00519)
[41] = target: AURKB (human) (UniProt Q96GD4)

Chain of RPS6KB2 (human) (Q9UBS0 whole entry, looked up): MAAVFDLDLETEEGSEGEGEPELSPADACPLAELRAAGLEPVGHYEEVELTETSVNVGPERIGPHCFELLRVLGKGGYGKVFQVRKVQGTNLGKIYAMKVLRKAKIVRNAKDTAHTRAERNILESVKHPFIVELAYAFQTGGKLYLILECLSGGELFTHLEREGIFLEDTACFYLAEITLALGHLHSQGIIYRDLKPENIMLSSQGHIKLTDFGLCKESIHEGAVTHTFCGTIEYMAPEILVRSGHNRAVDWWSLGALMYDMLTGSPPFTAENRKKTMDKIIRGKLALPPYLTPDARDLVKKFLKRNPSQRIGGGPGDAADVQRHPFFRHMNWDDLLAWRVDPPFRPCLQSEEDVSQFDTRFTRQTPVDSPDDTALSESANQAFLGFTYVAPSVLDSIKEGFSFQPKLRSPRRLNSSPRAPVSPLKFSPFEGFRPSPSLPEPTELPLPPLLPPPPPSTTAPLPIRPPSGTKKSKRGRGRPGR
Chain of CDK4 CCND3 (human) (P11802 whole entry, looked up): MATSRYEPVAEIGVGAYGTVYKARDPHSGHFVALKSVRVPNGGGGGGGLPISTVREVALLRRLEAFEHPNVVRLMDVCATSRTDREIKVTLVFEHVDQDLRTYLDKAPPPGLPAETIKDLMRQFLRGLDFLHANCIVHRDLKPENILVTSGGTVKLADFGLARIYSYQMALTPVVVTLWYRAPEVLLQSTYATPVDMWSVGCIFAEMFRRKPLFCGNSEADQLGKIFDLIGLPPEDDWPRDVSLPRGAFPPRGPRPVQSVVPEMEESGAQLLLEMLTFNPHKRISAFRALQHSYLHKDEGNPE
Chain of CDK4 CCND3 (human) (P30281 whole entry, looked up): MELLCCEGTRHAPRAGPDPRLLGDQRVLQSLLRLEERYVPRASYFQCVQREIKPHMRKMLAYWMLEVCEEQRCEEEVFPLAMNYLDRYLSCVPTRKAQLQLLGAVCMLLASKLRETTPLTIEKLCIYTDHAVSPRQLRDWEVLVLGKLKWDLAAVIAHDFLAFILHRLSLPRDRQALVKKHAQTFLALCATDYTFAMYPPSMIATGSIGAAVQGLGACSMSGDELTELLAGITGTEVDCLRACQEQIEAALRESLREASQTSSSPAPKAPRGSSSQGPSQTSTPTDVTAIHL
Chain of MAP3K11 (human) (Q16584 whole entry, looked up): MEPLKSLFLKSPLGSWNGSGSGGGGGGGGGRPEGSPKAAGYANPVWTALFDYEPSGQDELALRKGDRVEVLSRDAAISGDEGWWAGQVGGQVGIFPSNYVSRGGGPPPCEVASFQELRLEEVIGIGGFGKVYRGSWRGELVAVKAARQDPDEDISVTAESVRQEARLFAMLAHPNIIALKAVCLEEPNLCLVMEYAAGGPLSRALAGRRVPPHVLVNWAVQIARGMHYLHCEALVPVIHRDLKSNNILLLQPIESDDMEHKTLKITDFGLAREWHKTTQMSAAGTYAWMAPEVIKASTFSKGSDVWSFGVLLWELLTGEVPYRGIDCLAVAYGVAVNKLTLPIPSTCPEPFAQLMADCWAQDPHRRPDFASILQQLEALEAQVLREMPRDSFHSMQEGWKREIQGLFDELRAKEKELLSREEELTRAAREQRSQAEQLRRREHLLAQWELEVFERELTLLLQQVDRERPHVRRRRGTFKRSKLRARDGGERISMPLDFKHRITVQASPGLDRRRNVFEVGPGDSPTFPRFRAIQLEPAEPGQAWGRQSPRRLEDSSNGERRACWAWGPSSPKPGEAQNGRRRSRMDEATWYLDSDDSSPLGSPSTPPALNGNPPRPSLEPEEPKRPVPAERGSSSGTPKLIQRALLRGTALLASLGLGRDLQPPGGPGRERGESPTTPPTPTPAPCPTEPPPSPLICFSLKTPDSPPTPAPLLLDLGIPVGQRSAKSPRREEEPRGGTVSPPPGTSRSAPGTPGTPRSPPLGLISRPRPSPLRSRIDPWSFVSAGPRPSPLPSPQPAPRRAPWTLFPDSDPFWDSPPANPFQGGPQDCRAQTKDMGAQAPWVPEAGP
Chain of PNCK (human) (Q6P2M8 whole entry, looked up): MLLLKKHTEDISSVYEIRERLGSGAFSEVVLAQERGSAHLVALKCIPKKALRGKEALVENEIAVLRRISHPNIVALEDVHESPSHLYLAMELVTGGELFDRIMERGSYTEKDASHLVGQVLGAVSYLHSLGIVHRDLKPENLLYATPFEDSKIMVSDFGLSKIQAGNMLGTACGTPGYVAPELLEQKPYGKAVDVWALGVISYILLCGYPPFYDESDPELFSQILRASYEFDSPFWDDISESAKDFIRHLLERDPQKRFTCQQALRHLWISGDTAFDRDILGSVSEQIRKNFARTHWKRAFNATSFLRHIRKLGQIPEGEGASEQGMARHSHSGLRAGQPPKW
Chain of MAP4K4 (human) (O95819 whole entry, looked up): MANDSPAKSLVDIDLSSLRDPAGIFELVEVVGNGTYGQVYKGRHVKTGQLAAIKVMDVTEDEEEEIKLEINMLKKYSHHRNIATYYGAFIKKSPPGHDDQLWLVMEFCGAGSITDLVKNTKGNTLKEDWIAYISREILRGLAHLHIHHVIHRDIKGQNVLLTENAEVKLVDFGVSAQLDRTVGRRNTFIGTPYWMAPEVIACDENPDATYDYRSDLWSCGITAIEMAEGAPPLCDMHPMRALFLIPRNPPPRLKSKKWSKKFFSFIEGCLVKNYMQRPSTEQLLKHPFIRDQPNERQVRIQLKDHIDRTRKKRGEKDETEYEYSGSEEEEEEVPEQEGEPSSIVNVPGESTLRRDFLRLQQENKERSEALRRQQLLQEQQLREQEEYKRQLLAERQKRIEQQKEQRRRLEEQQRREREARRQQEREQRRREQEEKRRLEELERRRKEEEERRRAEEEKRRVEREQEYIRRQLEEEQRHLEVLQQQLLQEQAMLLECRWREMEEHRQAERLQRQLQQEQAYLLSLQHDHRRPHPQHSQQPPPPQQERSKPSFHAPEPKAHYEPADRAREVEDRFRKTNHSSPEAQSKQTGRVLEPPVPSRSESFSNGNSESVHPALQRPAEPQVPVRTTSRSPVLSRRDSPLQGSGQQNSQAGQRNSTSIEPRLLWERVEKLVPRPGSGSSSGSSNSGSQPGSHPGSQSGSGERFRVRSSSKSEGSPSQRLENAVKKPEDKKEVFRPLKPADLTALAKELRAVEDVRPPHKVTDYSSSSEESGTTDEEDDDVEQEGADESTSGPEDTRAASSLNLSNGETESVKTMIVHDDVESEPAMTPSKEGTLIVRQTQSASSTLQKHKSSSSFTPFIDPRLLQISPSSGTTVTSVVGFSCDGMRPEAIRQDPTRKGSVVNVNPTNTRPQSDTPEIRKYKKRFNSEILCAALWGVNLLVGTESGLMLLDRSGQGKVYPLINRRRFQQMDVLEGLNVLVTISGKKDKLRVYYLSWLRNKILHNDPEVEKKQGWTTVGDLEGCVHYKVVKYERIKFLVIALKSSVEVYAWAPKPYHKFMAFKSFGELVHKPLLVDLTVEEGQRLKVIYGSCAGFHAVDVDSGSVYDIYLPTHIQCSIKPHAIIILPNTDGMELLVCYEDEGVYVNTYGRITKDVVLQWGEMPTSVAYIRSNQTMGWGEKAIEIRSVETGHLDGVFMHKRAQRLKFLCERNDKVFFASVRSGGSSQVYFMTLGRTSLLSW
Chain of PASK (human) (Q96RG2 whole entry, looked up): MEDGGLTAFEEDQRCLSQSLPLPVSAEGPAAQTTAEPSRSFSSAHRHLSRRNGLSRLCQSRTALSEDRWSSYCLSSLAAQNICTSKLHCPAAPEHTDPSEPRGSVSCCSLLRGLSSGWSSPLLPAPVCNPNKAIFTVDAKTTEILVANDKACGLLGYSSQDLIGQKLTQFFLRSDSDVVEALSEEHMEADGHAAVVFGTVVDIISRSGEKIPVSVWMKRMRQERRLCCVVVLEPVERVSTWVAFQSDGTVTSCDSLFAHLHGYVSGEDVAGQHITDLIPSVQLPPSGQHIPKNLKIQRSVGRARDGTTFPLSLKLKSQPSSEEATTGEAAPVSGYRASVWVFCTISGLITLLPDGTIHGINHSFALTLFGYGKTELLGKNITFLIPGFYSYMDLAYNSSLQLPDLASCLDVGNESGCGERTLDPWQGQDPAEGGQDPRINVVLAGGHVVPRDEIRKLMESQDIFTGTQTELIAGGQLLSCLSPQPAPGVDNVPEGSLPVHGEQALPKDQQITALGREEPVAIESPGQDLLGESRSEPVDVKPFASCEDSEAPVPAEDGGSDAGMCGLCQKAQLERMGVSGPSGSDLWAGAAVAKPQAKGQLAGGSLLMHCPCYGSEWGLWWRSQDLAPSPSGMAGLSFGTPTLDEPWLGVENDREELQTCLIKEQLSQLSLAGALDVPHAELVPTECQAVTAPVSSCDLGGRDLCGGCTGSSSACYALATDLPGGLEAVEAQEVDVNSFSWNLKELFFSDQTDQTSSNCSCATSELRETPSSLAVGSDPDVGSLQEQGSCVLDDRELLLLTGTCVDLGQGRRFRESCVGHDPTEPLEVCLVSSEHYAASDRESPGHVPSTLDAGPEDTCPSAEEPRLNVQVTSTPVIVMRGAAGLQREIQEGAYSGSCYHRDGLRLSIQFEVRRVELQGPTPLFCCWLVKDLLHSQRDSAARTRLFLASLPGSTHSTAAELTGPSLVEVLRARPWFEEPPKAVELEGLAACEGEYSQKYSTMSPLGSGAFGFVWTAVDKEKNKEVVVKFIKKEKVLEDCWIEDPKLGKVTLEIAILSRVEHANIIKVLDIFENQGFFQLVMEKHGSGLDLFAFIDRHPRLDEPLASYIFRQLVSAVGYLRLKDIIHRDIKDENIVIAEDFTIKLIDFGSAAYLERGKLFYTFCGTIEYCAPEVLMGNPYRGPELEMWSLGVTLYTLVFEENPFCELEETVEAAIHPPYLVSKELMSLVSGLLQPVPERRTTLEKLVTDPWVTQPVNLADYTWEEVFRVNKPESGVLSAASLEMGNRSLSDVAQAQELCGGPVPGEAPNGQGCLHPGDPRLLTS

Row | SMILES | residual activity [1] | residual activity [2] | residual activity [3] | residual activity [4] | residual activity [5] | residual activity [6] | residual activity [7] | residual activity [8] | residual activity [9] | residual activity [10] | residual activity [11] | residual activity [12] | residual activity [13] | residual activity [14] | residual activity [16] | residual activity [17] | residual activity [18] | residual activity [19] | residual activity [20] | residual activity [21] | also measured
1 | CNC(=O)c1cc(Oc2ccc(NC(=O)Nc3ccc(Cl)c(C(F)(F)F)c3)cc2)ccn1 | 98.7% | 104% | 94.5% | 4.85% | 99.9% | 93.6% | 94.2% | 97.7% | 89.9% | 94.2% | 36.9% | 100% | 102% | 94.4% | 101% | 97.7% | 99.5% | 99.4% | 106% | 89.7% | residual activity [15]: 99.9%; residual activity [22]: 95.7%; residual activity [23]: 93.2%; residual activity [24]: 109%; residual activity [25]: 91.3%; residual activity [26]: 103%; residual activity [27]: 96.9%; residual activity [28]: 106%; residual activity [29]: 103%; residual activity [30]: 80.7%; residual activity [31]: 101%; residual activity [32]: 94.7%; residual activity [33]: 114%; residual activity [34]: 104%; residual activity [35]: 98.3%; residual activity [36]: 96.1%; residual activity [37]: 94.7%; residual activity [38]: 103%; residual activity [39]: 103%
2 | O=S(=O)(c1cccc2cnccc12)N1CCCNCC1 | 93.5% | 88.3% | 94.7% | 103% | 95.2% | 91.8% | 85.3% | 96.3% | 87.2% | 103% | 87.3% | 101% | 100% | 91.9% | 109% | 81.8% | 97.1% | 90.5% | 90.7% | 117% | residual activity [40]: 96.8%; residual activity [41]: 98.8%; residual activity [22]: 101%; residual activity [23]: 83.2%; residual activity [24]: 77.8%; residual activity [25]: 95.4%; residual activity [26]: 81.9%; residual activity [27]: 90%; residual activity [28]: 101%; residual activity [29]: 91.5%; residual activity [30]: 97.3%; residual activity [31]: 102%; residual activity [32]: 110%; residual activity [33]: 98.5%; residual activity [34]: 84.8%; residual activity [35]: 99.7%; residual activity [36]: 44.1%; residual activity [37]: 91.6%; residual activity [38]: 94.4%
3 | CCN(CC)CCNC(=O)c1c(C)[nH]c(/C=C2\C(=O)Nc3ccc(F)cc32)c1C | 20.7% | 104% | 91.7% | 74.7% | 34.4% | 117% | 99.5% | 23.3% | 103% | 89.1% | 90.3% | 93.2% | 101% | 92.2% | 94.8% | 50.8% | 102% | 87.6% | 64.3% | 25.4% | residual activity [41]: 48.7%; residual activity [22]: 71.6%; residual activity [23]: 72.1%; residual activity [24]: 51.9%; residual activity [25]: 20.6%; residual activity [26]: 113%; residual activity [27]: 24.8%; residual activity [28]: 40.3%; residual activity [30]: 50.8%; residual activity [31]: 95.8%; residual activity [32]: 83.8%; residual activity [33]: 93%; residual activity [34]: 76.1%; residual activity [35]: 68.4%; residual activity [36]: 12.4%; residual activity [37]: 98.5%; residual activity [39]: 30.4%
